This is an account of results in PubChem BioAssay AID272 (DTP/NCI, 2004).

Molecules are shown by their SMILES. Values joined by “and” are separate entries in the source; they are usually repeats but may differ in a detail not shown here. Identical values can stand only once. Results filed as inconclusive are left out.

The experiment concerns Lewis lung carcinoma i.m., BDF1 mice, T/C %. Briefly: NCI In Vivo Anticancer Drug Screen. Data for tumor model Lewis Lung Carcinoma (intramuscular) in B6D2F1 (BDF1) mice. The method, boiled down: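 Antitumour activity is assessed in transplanted-tumour mice. Endpoint is survival or tumour size, normalised to vehicle-dosed controls (T/C).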
Where [1] appears, read: endpoint: mean tumor weight (est.), dose: 5.0 mg/kg/injection, schedule: Q01DX011 (ip), vehicle: saline with Tween-80, higher = larger tumour.
The mark [2] stands for this setting: endpoint: mean tumor weight (est.), dose: 10.0 mg/kg/injection, schedule: Q01DX011 (ip), vehicle: saline with Tween-80, higher = larger tumour.
The mark [3] stands for this setting: endpoint: median survival time, dose: 10.0 mg/kg/injection, schedule: Q01DX011 (ip), vehicle: saline with Tween-80, higher = longer survival.

For the compound `N=c1ccn2c(n1)OC1C(OP(=O)(O)O)C(CO)OC12` (stereo unspecified), the T/C was 79 % of control (endpoint: mean tumor weight (est.), dose: 12.5 mg/kg/injection, schedule: Q01DX011 (oral), vehicle: water, higher = larger tumour); 71 % of control (endpoint: mean tumor weight (est.), dose: 25.0 mg/kg/injection, schedule: Q01DX011 (oral), vehicle: water, higher = larger tumour); 13 % of control (endpoint: mean tumor weight (est.), dose: 50.0 mg/kg/injection, schedule: Q01DX011 (oral), vehicle: water, higher = larger tumour); 12 % of control (endpoint: mean tumor weight (est.), dose: 100.0 mg/kg/injection, schedule: Q01DX011 (oral), vehicle: water, higher = larger tumour); 12 % of control (endpoint: mean tumor weight (est.), dose: 200.0 mg/kg/injection, schedule: Q01DX011 (oral), vehicle: water, higher = larger tumour); 109 % of control (endpoint: median survival time, dose: 12.5 mg/kg/injection, schedule: Q01DX011 (oral), vehicle: water, higher = longer survival). For the same compound, the T/C is, setting by setting: (endpoint: median survival time, dose: 25.0 mg/kg/injection, schedule: Q01DX011 (oral), vehicle: water, higher = longer survival) 105 % of control; (endpoint: median survival time, dose: 50.0 mg/kg/injection, schedule: Q01DX011 (oral), vehicle: water, higher = longer survival) 118 % of control; (endpoint: median survival time, dose: 100.0 mg/kg/injection, schedule: Q01DX011 (oral), vehicle: water, higher = longer survival) 120 % of control; (endpoint: median survival time, dose: 200.0 mg/kg/injection, schedule: Q01DX011 (oral), vehicle: water, higher = longer survival) 116 % of control.

Consider `O=S(=O)(O)C(Nc1ccccc1)c1ccccc1` (stereo unspecified), for which the T/C runs as follows: (endpoint: mean tumor weight, dose: 200.0 mg/kg/injection, schedule: Q01DX011 (ip), vehicle: water, higher = larger tumour) 79 % of control; (endpoint: mean tumor weight, dose: 400.0 mg/kg/injection, schedule: Q01DX011 (ip), vehicle: water, higher = larger tumour) 58 % of control.

For `C[C@]12C=CC(=O)C=C1CC[C@@H]1[C@@H]2C(=O)C[C@@]2(C)[C@H]1CC[C@]2(O)C(=O)CO`, the T/C by setting is: (endpoint: mean tumor weight, dose: 23.0 mg/kg/injection, schedule: Q01DX009 (ip), vehicle: water, higher = larger tumour) 70 % of control; (endpoint: mean tumor weight, dose: 25.0 mg/kg/injection, schedule: Q01DX011 (ip), vehicle: saline, higher = larger tumour) 45 % of control; (endpoint: mean tumor weight, dose: 39.0 mg/kg/injection, schedule: Q01DX009 (ip), vehicle: water, higher = larger tumour) 50 % of control; (endpoint: mean tumor weight, dose: 50.0 mg/kg/injection, schedule: Q01DX011 (ip), vehicle: saline, higher = larger tumour) 36 % of control; (endpoint: mean tumor weight, dose: 100.0 mg/kg/injection, schedule: Q01DX011 (ip), vehicle: saline, higher = larger tumour) 17 % of control; (endpoint: mean tumor weight, dose: 200.0 mg/kg/injection, schedule: Q01DX011 (ip), vehicle: saline, higher = larger tumour) 5 % of control. In addition, the T/C (endpoint: median survival time, dose: 23.0 mg/kg/injection, schedule: Q01DX009 (ip), vehicle: none, higher = longer survival) is 109 % of control; the T/C (endpoint: median survival time, dose: 23.0 mg/kg/injection, schedule: Q01DX009 (ip), vehicle: water, higher = longer survival) was 106 % of control; the T/C (endpoint: median survival time, dose: 25.0 mg/kg/injection, schedule: Q01DX011 (ip), vehicle: carboxymethylcellulose (CMC), higher = longer survival) was 106 % of control and 113 % of control; the T/C (endpoint: median survival time, dose: 25.0 mg/kg/injection, schedule: Q01DX011 (ip), vehicle: saline, higher = longer survival) is 112 % of control; the T/C (endpoint: median survival time, dose: 25.0 mg/kg/injection, schedule: Q01DX011 (ip), vehicle: water, higher = longer survival) is 110 % of control; the T/C (endpoint: median survival time, dose: 39.0 mg/kg/injection, schedule: Q01DX009 (ip), vehicle: none, higher = longer survival) was 104 % of control. Also, the T/C is, setting by setting: (endpoint: median survival time, dose: 39.0 mg/kg/injection, schedule: Q01DX009 (ip), vehicle: water, higher = longer survival) 90 % of control; (endpoint: median survival time, dose: 50.0 mg/kg/injection, schedule: Q01DX011 (ip), vehicle: carboxymethylcellulose (CMC), higher = longer survival) 115 % of control and 121 % of control; (endpoint: median survival time, dose: 50.0 mg/kg/injection, schedule: Q01DX011 (ip), vehicle: saline, higher = longer survival) 104 % of control; (endpoint: median survival time, dose: 50.0 mg/kg/injection, schedule: Q01DX011 (ip), vehicle: water, higher = longer survival) 108 % of control; (endpoint: median survival time, dose: 52.0 mg/kg/injection, schedule: Q01DX007 (sc), vehicle: saline, higher = longer survival) 118 % of control and 119 % of control; (endpoint: median survival time, dose: 65.0 mg/kg/injection, schedule: Q01DX009 (ip), vehicle: none, higher = longer survival) 95 % of control. Besides, the T/C runs as follows: (endpoint: median survival time, dose: 86.0 mg/kg/injection, schedule: Q01DX007 (sc), vehicle: saline, higher = longer survival) 95 % of control and 113 % of control; (endpoint: median survival time, dose: 100.0 mg/kg/injection, schedule: Q01DX011 (ip), vehicle: saline, higher = longer survival) 102 % of control; (endpoint: median survival time, dose: 100.0 mg/kg/injection, schedule: Q01DX011 (ip), vehicle: water, higher = longer survival) 94 % of control; (endpoint: median survival time, dose: 108.0 mg/kg/injection, schedule: Q01DX009 (ip), vehicle: none, higher = longer survival) 46 % of control; (endpoint: median survival time, dose: 144.0 mg/kg/injection, schedule: Q01DX007 (sc), vehicle: saline, higher = longer survival) 105 % of control; (endpoint: median survival time, dose: 180.0 mg/kg/injection, schedule: Q01DX009 (ip), vehicle: none, higher = longer survival) 42 % of control. In addition, the T/C (endpoint: median survival time, dose: 240.0 mg/kg/injection, schedule: Q01DX007 (sc), vehicle: saline, higher = longer survival) was 68 % of control.

With `CN(C)CCCNc1c2ccccc2nc2cccc([N+](=O)[O-])c12`, the T/C was 88 % of control (endpoint: median survival time, dose: 0.1 mg/kg/injection, schedule: Q02DX011 (ip), vehicle: saline, higher = longer survival); 120 % of control (endpoint: median survival time, dose: 2.0 micrograms/kg/injection, schedule: Q01DX009 (ip), vehicle: saline, higher = longer survival); 92 % of control and 104 % of control (endpoint: median survival time, dose: 4.0 micrograms/kg/injection, schedule: Q01DX009 (ip), vehicle: saline, higher = longer survival); 109 % of control (endpoint: median survival time, dose: 16.0 micrograms/kg/injection, schedule: Q01DX009 (ip), vehicle: saline, higher = longer survival); 100 % of control (endpoint: median survival time, dose: 32.0 micrograms/kg/injection, schedule: Q01DX009 (ip), vehicle: saline, higher = longer survival); 88 % of control and 107 % of control (endpoint: median survival time, dose: 64.0 micrograms/kg/injection, schedule: Q01DX009 (ip), vehicle: saline, higher = longer survival).

On to `Nc1nc(CCl)nc(Nc2ccccc2)n1`, for which the T/C by setting is: (endpoint: mean tumor weight (est.), dose: 100.0 mg/kg/injection, schedule: Q01DX011 (ip), vehicle: saline with Tween-80, higher = larger tumour) 61 % of control; (endpoint: median survival time, dose: 100.0 mg/kg/injection, schedule: Q01DX011 (ip), vehicle: saline with Tween-80, higher = longer survival) 100 % of control.

As for `O=c1cnn(C2OC(CO)C(O)C2O)c(=O)[nH]1` (stereo unspecified), the T/C was 112 % of control (endpoint: median survival time, dose: 75.0 mg/kg/injection, schedule: Q01DX009 (ip), vehicle: Klucel (hydroxypropylcellulose) (HPC), higher = longer survival); 120 % of control (endpoint: median survival time, dose: 150.0 mg/kg/injection, schedule: Q01DX009 (ip), vehicle: Klucel (hydroxypropylcellulose) (HPC), higher = longer survival); 121 % of control (endpoint: median survival time, dose: 300.0 mg/kg/injection, schedule: Q01DX009 (ip), vehicle: Klucel (hydroxypropylcellulose) (HPC), higher = longer survival); 119 % of control (endpoint: median survival time, dose: 600.0 mg/kg/injection, schedule: Q01DX009 (ip), vehicle: Klucel (hydroxypropylcellulose) (HPC), higher = longer survival).

With `CCCCCCCCCCCCn1c(C)nc2ccccc21`, the T/C by setting is: (endpoint: mean tumor weight (est.), dose: 0.63 mg/kg/injection, schedule: Q01DX011 (ip), vehicle: saline, higher = larger tumour) 84 % of control; (endpoint: mean tumor weight (est.), dose: 1.25 mg/kg/injection, schedule: Q01DX011 (ip), vehicle: saline, higher = larger tumour) 89 % of control; (endpoint: median survival time, dose: 0.63 mg/kg/injection, schedule: Q01DX011 (ip), vehicle: saline, higher = longer survival) 104 % of control; (endpoint: median survival time, dose: 1.25 mg/kg/injection, schedule: Q01DX011 (ip), vehicle: saline, higher = longer survival) 98 % of control.

For `O=C(CBr)OCCOc1ccccc1`, the T/C under setting [1] was 85 % of control; the T/C under setting [2] was 93 % of control; the T/C (endpoint: mean tumor weight (est.), dose: 20.0 mg/kg/injection, schedule: Q01DX011 (ip), vehicle: saline with Tween-80, higher = larger tumour) was 85 % of control; the T/C (endpoint: median survival time, dose: 5.0 mg/kg/injection, schedule: Q01DX011 (ip), vehicle: saline with Tween-80, higher = longer survival) was 88 % of control; the T/C under setting [3] was 104 % of control; the T/C (endpoint: median survival time, dose: 20.0 mg/kg/injection, schedule: Q01DX011 (ip), vehicle: saline with Tween-80, higher = longer survival) was 108 % of control.

As to `N#Cc1c(F)c(F)c(C#N)c(F)c1F`, the T/C was 100 % of control (endpoint: mean tumor weight (est.), dose: 1.25 mg/kg/injection, schedule: Q01DX011 (ip), vehicle: saline with Tween-80, higher = larger tumour); 95 % of control (endpoint: mean tumor weight (est.), dose: 2.5 mg/kg/injection, schedule: Q01DX011 (ip), vehicle: saline with Tween-80, higher = larger tumour); 101 % of control under setting [1]; 70 % of control under setting [2]; 87 % of control (endpoint: median survival time, dose: 1.25 mg/kg/injection, schedule: Q01DX011 (ip), vehicle: saline with Tween-80, higher = longer survival); 89 % of control under setting [3].

On to `CC(=O)NNC(=O)c1ccccn1`, for which the T/C reads like this: (endpoint: median survival time, dose: 8.0 mg/kg/injection, schedule: Q01DX Z (ip), vehicle: other, higher = longer survival) 86 % of control; (endpoint: median survival time, dose: 16.0 mg/kg/injection, schedule: Q01DX Z (ip), vehicle: other, higher = longer survival) 86 % of control; (endpoint: median survival time, dose: 32.0 mg/kg/injection, schedule: Q01DX Z (ip), vehicle: other, higher = longer survival) 86 % of control; (endpoint: median survival time, dose: 64.0 mg/kg/injection, schedule: Q01DX Z (ip), vehicle: other, higher = longer survival) 91 % of control.

As to `NCCCNCCSP(=O)(O)O`, the T/C (endpoint: median survival time, dose: 300.0 mg/kg/injection, schedule: Q01DX001 (ip), vehicle: saline, higher = longer survival) is 102 % of control and the T/C (endpoint: median survival time, dose: 500.0 mg/kg/injection, schedule: Q01DX001 (ip), vehicle: saline, higher = longer survival) was 92 % of control.
